One data set relates to H. influenzae 474. Kind of data set: MIC against Haemophilus strains. Type of data set: cell-based. The settings on record: s. No. 11, H. influenzae 474.
The next data set deals with H. influenzae ATCC 49247. The data set can be described thus: MIC against Haemophilus strains. Format: cell-based. The settings on record: s. No. 2, H. influenzae ATCC 49247.
Another data set deals with H. influenzae P318. The data set can be described thus: MIC against Haemophilus strains. Type of data set: cell-based. The following applies: s. No. 10, H. influenzae P318.
Another data set deals with H. influenzae 1381. The data set can be described thus: MIC against Haemophilus strains. The following applies: s. No. 7, H. influenzae 1381. Type of data set: cell-based.
The subject of a further data set is H. influenzae 49766. The data set can be described thus: MIC against Haemophilus strains. The settings on record: s. No. 6, H. influenzae 49766. Format: cell-based.
The next data set concerns H. influenzae 35056. The data set can be described thus: MIC against Haemophilus strains. The settings on record: s. No. 1, H. influenzae 35056. Format: cell-based.
The test system of another data set is H. influenzae 23. The data set can be described thus: MIC against Haemophilus strains. Type of data set: cell-based. The settings on record: s. No. 5, H. influenzae 23.
The subject of another data set is H. influenzae R. The data set can be described thus: MIC against Haemophilus strains. The settings on record: s. No. 4, H. influenzae R. Type of data set: cell-based.
A further data set concerns H. influenzae 1745. The data set can be described thus: MIC against Haemophilus strains. Type of data set: cell-based. The settings on record: s. No. 9, H. influenzae 1745.
Another data set deals with H. influenzae βIac. Kind of data set: MIC against Haemophilus strains. Format: cell-based. The following applies: s. No. 3, H. influenzae βIac.
The subject of a further data set is H. influenzae 451. Kind of data set: MIC against Haemophilus strains. Format: cell-based. The settings on record: s. No. 8, H. influenzae 451.
Setting [1] is: Haemophilus influenzae, read-out: MIC.

This is an account of results in patent US20060293307A1, “Oxazolidinone derivatives as antimicrobials” (priority 2002, published 2006).

≈ marks a conversion by molar mass, not a printed value. Like-named read-outs stand apart in the source and are kept apart here.

Take `CC[C@H]1OC(=O)[C@H](C)C(=O)[C@H](C)[C@@H](O[C@@H]2O[C@H](C)C[C@H](N(C)C)[C@H]2O)[C@](C)(OC)C[C@@H](C)C(=O)[C@H](C)[C@H]2N(CCCCn3cnc(-c4cccnc4)c3)C(=O)O[C@]12C` [Telithromycin, reference compound]: the MIC with H. influenzae 474 (setting [1]) worked out at 2 µg/mL (≈ 2.46 µM); in the data set on H. influenzae ATCC 49247 (Haemophilus influenzae, ATCC49247, read-out: MIC), 2 µg/mL (≈ 2.46 µM); in the data set on H. influenzae P318 (setting [1]) it was 1 µg/mL (≈ 1.23 µM); in the data set on H. influenzae 1381 (setting [1]), 2 µg/mL (≈ 2.46 µM); in the data set on H. influenzae 49766 (setting [1]), 2 µg/mL (≈ 2.46 µM); with H. influenzae 35056 (setting [1]) it was 2 µg/mL (≈ 2.46 µM). For the same compound, the MIC with H. influenzae 23 (setting [1]) stood at 2 µg/mL (≈ 2.46 µM); in the data set on H. influenzae R (setting [1]), 2 µg/mL (≈ 2.46 µM); with H. influenzae 1745 (setting [1]) it was 1 µg/mL (≈ 1.23 µM); in the data set with H. influenzae βIac (setting [1]), 2 µg/mL (≈ 2.46 µM); in the data set on H. influenzae 451 (setting [1]), 2 µg/mL (≈ 2.46 µM).

Turning to `O=C(CF)NC[C@H]1CN(c2ccc(N3CCN(c4ccc([N+](=O)[O-])s4)CC3)c(F)c2)C(=O)O1`, the melting point (in general, the temperature, or range, at which the solid turns liquid) was in the range of 145 to 150 °C.

`C[C@H]1COc2c(N3CCN(C)CC3)c(F)cc3c(=O)c(C(=O)O)cn1c23` [LevoFloxaci, reference compound]: the MIC with H. influenzae 474 was found to be 0.015 µg/mL (≈ 0.0415 µM); in the data set on H. influenzae ATCC 49247 it was 0.015 µg/mL (≈ 0.0415 µM); in the data set with H. influenzae P318, 0.03 µg/mL (≈ 0.083 µM); with H. influenzae 1381 it was 0.015 µg/mL (≈ 0.0415 µM); against H. influenzae 49766, 0.03 µg/mL (≈ 0.083 µM); in the data set on H. influenzae 35056, 0.015 µg/mL (≈ 0.0415 µM). The MIC was found to be 0.015 µg/mL (≈ 0.0415 µM) with H. influenzae 23; 0.015 µg/mL (≈ 0.0415 µM) in the data set with H. influenzae R; 0.03 µg/mL (≈ 0.083 µM) in the data set with H. influenzae 1745; 0.008 µg/mL (≈ 0.0221 µM) with H. influenzae βIac; 0.015 µg/mL (≈ 0.0415 µM) with H. influenzae 451.

On to `CO/N=C(\C(=O)N[C@@H]1C(=O)N2C(C(=O)O)=C(CSc3nc(=O)c(O)nn3C)CS[C@H]12)c1csc(N)n1` [Ceftriaxone, reference compound], for which the MIC was determined as 0.004 µg/mL (≈ 0.00721 µM) with H. influenzae 474; 0.125 µg/mL (≈ 0.225 µM) in the data set on H. influenzae ATCC 49247; 0.015 µg/mL (≈ 0.027 µM) against H. influenzae P318; 0.008 µg/mL (≈ 0.0144 µM) against H. influenzae 1381; 0.008 µg/mL (≈ 0.0144 µM) against H. influenzae 49766; 0.06 µg/mL (≈ 0.108 µM) in the data set with H. influenzae 35056. Besides, the MIC in the data set with H. influenzae 23 is 0.004 µg/mL (≈ 0.00721 µM); in the data set on H. influenzae R it was 0.004 µg/mL (≈ 0.00721 µM); in the data set with H. influenzae 1745, 0.004 µg/mL (≈ 0.00721 µM); against H. influenzae βIac, less than 0.002 µg/mL; against H. influenzae 451 it was 0.008 µg/mL (≈ 0.0144 µM).
